From publication PMC5462101 (Future medicinal chemistry, 2015)

What was measured:
[1] = target: T1, soybean lipoxygenase (Glycine max, UniProt P08170); assay: Inhibition of soybean lipoxygenase; assay type: biochemical; details: sodium linoleate 0.1 mM, read-out: Lipoxygenase inhibitory activity (IC50)
T1 construct: purchased Sigma
T1 sequence (P08170 1-839): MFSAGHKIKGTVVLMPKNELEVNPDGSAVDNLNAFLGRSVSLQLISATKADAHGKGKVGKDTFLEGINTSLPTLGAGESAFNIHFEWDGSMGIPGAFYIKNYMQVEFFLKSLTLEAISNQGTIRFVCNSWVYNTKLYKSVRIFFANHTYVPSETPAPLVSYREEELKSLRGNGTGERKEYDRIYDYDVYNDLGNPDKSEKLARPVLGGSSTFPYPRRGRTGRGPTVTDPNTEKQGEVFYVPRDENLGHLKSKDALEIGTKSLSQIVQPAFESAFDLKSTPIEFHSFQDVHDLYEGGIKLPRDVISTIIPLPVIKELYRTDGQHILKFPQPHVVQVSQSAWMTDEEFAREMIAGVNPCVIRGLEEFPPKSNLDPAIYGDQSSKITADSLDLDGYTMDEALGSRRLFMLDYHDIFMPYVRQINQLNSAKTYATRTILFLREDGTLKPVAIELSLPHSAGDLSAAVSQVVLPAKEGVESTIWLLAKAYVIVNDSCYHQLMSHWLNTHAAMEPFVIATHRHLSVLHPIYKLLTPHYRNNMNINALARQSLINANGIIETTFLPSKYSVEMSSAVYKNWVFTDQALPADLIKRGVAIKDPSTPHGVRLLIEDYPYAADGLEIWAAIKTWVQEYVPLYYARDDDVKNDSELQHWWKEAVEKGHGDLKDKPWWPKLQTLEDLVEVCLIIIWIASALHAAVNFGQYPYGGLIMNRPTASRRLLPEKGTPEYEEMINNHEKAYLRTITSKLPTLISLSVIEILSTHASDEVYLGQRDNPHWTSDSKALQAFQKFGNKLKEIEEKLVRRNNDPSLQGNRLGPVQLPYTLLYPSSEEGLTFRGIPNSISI
Protocol: The substituted pteridines prepared were assayed for inhibition of soybean lipoxygenase (Table 1) (Supplementary Information). Many studies have used readily obtainable soybean lipoxygenase, which is a homologue of mammalian lipoxygenase and well examined. The availability of soybean LOX and its well-characterized crystal structure led to its use in this study.
Determination of soybean lipoxygenase inhibition
A solution in DMSO of each compound to be tested was incubated at room temperature with sodium linoleate (0.1 mM) and a solution of soybean lipoxygenase (EC 1.13.11.12) (1:9 x 10^4 w/v in saline, 0.2 mL, Sigma). The conversion of sodium linoleate to 13-hydroperoxylinoleic acid was monitored by observation at 234 nm and compared with the value of appropriate standard inhibitor (Table 1).
(§1) IC50 determinations. OriginPro 8 was used to determine IC50 values from the sigmoidal line fitted to a graph of log[concentration] against the average percentage inhibition from two independent experiments, with at least 6 different concentrations. The SEM is the calculated standard error in the IC50 value of the fitted line.

[2] = Reducing ability in DPPH assay; details: compound 100 μM
Protocol: Previous work has shown that pterins, their dihydro- and their tetrahydro-derivatives can each be antioxidants or pro-oxidants, depending on the particular conditions. In the present study, several assays were used to assess in vitro antioxidant activity in order to obtain representative information; each method involves the generation of a different radical.
Determination of reducing activity using 1,1-diphenyl-2-picrylhydrazyl radical (DPPH)
To a solution of DPPH in absolute ethanol was added an equal volume of the compound to be tested dissolved in DMSO (20 µL). From a stock solution (10 mM) was prepared a final solution of 100 µM for evaluation of the compounds. The absorbance at 517 nm was recorded after 20 and 60 min at room temperature (Table 2).

[3] = Competition with DMSO for hydroxyl radicals; details: compound at 100 µM, Fe3+/ascorbic acid, DMSO 33 mM
Protocol: Competition of the novel pteridine derivatives with dimethyl sulfoxide for hydroxyl radicals was measured. […] The majority of the derivatives were excellent scavengers of hydroxyl radicals with activity higher than the reference compound 6-hydroxy-2,5,7,8-tetramethylchroman-2-carboxylic acid (Trolox).
Competition of pteridine derivatives with DMSO for hydroxyl radicals
Hydroxyl radicals generated by the Fe^3+/ascorbic acid system were detected by determination of formaldehyde produced from the oxidation of DMSO, according to the procedure of Nash. The reaction mixture comprised ethylenediaminetetracetic acid (EDTA) (0.1 mM), Fe^3+ (167 μM), DMSO (33 mM) in phosphate buffer (50 mM, pH 7.4), ascorbic acid (10 mM) and the compound to be tested at 100 µM. After incubation at 37 °C for 30 min the mixture was quenched with aqueous trichloroacetic acid (17% w/v) (Table 2) and the percentage competition of the tested compounds with DMSO for hydroxyl radicals was determined (Table 2).

[4] = Inhibition of linoleic acid peroxidation (AAPH); details: linoleic acid peroxidation initiated by AAPH, 37 °C, pH 7.4
From the text: Azo compounds that generate free radicals through spontaneous thermal decomposition are useful for in vitro studies of free radical production. The water-soluble AAPH has been extensively used as a clean and controllable source of thermally produced alkylperoxyl free radicals. […] Evidently, the presence of 6,7-dimethyl groups on the pteridine ring greatly enhances protection against lipid peroxidation; the nature of the alkyl group and ring size on the 2-substituent has some, but much less, effect. […] The role of lipophilicity (as assessed from calculated clogP values; Table 1) is not clear, but substituent bulk plays a significant role.
Inhibition of linoleic acid peroxidation
Production of conjugated diene hydroperoxide by oxidation of linoleic acid in an aqueous dispersion was monitored at 234 nm. 2,2’-Azobis(2-amidinopropane) dihydrochloride (AAPH) was used as a free radical initiator. This assay was used to follow oxidative changes and to determine the inhibition of the peroxidation of sodium linoleate by each tested compound. A dispersion of sodium linoleate (16 mM, 10 μL) was added to the UV cuvette containing phosphate buffer (0.05 M, 0.93 mL) at pH 7.4 and kept in a thermostat at 37 °C. The oxidation reaction was initiated at 37 °C under air by the addition of AAPH solution (40 mM, 50 μL). Oxidation was carried out in the presence of aliquots (10 μL) of the tested compound. In the assay without antioxidant, lipid oxidation was measured in the presence of DMSO (10 μL). The rate of oxidation at 37 °C was monitored by recording the increase in absorption at 234 nm caused by conjugated diene hydroperoxide formation (Table 2).
as §1

With `CN1CCN(c2nc(NCc3cccs3)c3nccnc3n2)CC1` [Compound 18f, 2-(4-methylpiperazin-1-yl)-N-(thiophen-2-ylmethyl)pteridin-4-amine] the IC50 [1] was 55 ± 0.8 µM, the “RA (%) 100μM 20 min” value ([2]; 20 min) was 6% and the “RA (%) 100μM 60 min” value ([2]; 60 min) was 4%. The “Hydroxyl radicals scavenged (%)” value [3] was 96% and the IC50 [4] was 100 ± 1.5 µM.
